Experimental data from PubChem BioAssay (NCI).
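Where inhibition never reached the appropriate level, the endpoint shown equals the highest concentration tested. Otherwise, values were interpolated linearly from a five-concentration, 48-hour dose response in 96-well plates. TGI is the concentration that stops growth completely.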

Columns and labels:
Assay in all cases: inhibition of tumour cell growth, NCI panel, 48 h
[1] = system: 786-0 renal
[2] = system: A498 renal
[3] = system: HCC-2998 colon
[4] = system: HCT-15 colon
[5] = system: HOP-62 NSCLC
[6] = system: M14 melanoma
[7] = system: MDA-MB-435
[8] = system: NCI-H226 lung
[9] = system: NCI-H23 lung
[10] = system: NCI-H522 lung
[11] = system: NCI/ADR-RES ovarian
[12] = system: OVCAR-4 ovarian
[13] = system: RPMI-8226 leukemia
[14] = system: SF-539 CNS
[15] = system: SNB-19 CNS
[16] = system: SR leukemia
[17] = system: T-47D breast

SMILES: O=C(/C=C/c1ccc(O)c(O)c1)Oc1ccccc1
- TGI [1]: 48.1 µM
- TGI [2]: > 100 µM
- TGI [3]: > 58.8 µM
- TGI [4]: 36.2 µM
- TGI [5]: 49.2 µM
- TGI [6]: 55.2 µM
- TGI [7]: > 74.2 µM
- TGI [8]: > 100 µM
- TGI [9]: 46.2 µM
- TGI [10]: 1.95 µM
- TGI [11]: 43.5 µM
- TGI [12]: > 100 µM
- TGI [13]: 45 µM
- TGI [14]: 88.5 µM
- TGI [15]: > 80.9 µM
- TGI [16]: 24.8 µM
- TGI [17]: 65.2 µM

SMILES: N#C/C(=C\N1CCNC1=S)C(=O)c1ccc2ccccc2c1
- TGI [1]: > 100 µM
- TGI [2]: > 100 µM
- TGI [3]: > 100 µM
- TGI [4]: > 100 µM
- TGI [5]: > 100 µM
- TGI [6]: > 100 µM
- TGI [7]: > 100 µM
- TGI [8]: > 100 µM
- TGI [9]: > 100 µM
- TGI [10]: > 100 µM
- TGI [11]: > 100 µM
- TGI [12]: > 100 µM
- TGI [13]: > 100 µM
- TGI [14]: > 100 µM
- TGI [15]: > 100 µM
- TGI [16]: > 100 µM
- TGI [17]: > 100 µM

SMILES: OC(CCN1CCN(CCOC(c2ccc(F)cc2)c2ccc(F)cc2)CC1)c1ccccc1 (configuration not stated)
- TGI [1]: 25.6 µM
- TGI [2]: 19.5 µM
- TGI [3]: 12.4 µM
- TGI [4]: 27.1 µM
- TGI [5]: 36.5 µM
- TGI [6]: 28 µM
- TGI [7]: 38.9 µM
- TGI [8]: 34.4 µM
- TGI [9]: 31.1 µM
- TGI [10]: 28.1 µM
- TGI [11]: 26.8 µM
- TGI [12]: 39.4 µM
- TGI [13]: 43 µM
- TGI [14]: 25.6 µM
- TGI [15]: 30.7 µM
- TGI [16]: 33.3 µM
- TGI [17]: 28.7 µM

SMILES: Cc1ccc(-c2n[nH]c(=O)n2N)cc1
- TGI [1]: > 100 µM
- TGI [2]: > 100 µM
- TGI [3]: > 100 µM
- TGI [4]: > 100 µM
- TGI [5]: > 100 µM
- TGI [6]: > 100 µM
- TGI [7]: > 100 µM
- TGI [8]: > 100 µM
- TGI [9]: > 100 µM
- TGI [10]: > 100 µM
- TGI [11]: > 100 µM
- TGI [12]: > 100 µM
- TGI [13]: > 100 µM
- TGI [14]: > 100 µM
- TGI [15]: > 100 µM
- TGI [16]: > 100 µM
- TGI [17]: > 100 µM

SMILES: COc1ccc(-c2c(N)n(-c3cc(OC)cc(OC)c3)c(=O)c3cc([N+](=O)[O-])ccc23)cc1
- TGI [1]: > 100 µM
- TGI [2]: 98.5 µM
- TGI [3]: > 100 µM
- TGI [4]: > 100 µM
- TGI [5]: > 100 µM
- TGI [6]: > 100 µM
- TGI [7]: > 100 µM
- TGI [8]: > 100 µM
- TGI [9]: > 100 µM
- TGI [10]: > 100 µM
- TGI [11]: > 100 µM
- TGI [12]: > 100 µM
- TGI [13]: > 100 µM
- TGI [14]: > 100 µM
- TGI [15]: 99.5 µM
- TGI [16]: > 100 µM
- TGI [17]: > 100 µM

SMILES: C[C@@H]1O[C@@H]2OCC[C@@H]2C2=C1C(=O)c1ccccc1C2=O
- TGI [1]: 29.1 µM
- TGI [2]: 32.4 µM
- TGI [3]: 35.4 µM
- TGI [4]: 44.5 µM
- TGI [5]: 31.5 µM
- TGI [6]: 14.2 µM
- TGI [7]: 3.69 µM
- TGI [8]: 61.5 µM
- TGI [9]: 23.4 µM
- TGI [10]: 20.3 µM
- TGI [11]: 14 µM
- TGI [12]: 16.4 µM
- TGI [13]: 30.9 µM
- TGI [14]: 22.3 µM
- TGI [15]: 36.5 µM
- TGI [16]: 28.1 µM
- TGI [17]: 31.9 µM
